Inhibition data for 31 molecules are collected here from patent US20090197880A1 (Genelabs Technologies, Inc., priority 2007, published 2009).

One assay is described as follows: HCV replicon assay (luciferase) in ET (Huh-lucubineo-ET) cell line. Format: cell-based. As to conditions: Hepatitis C virus; tested at 5 μM; inhibition of replication relative to no compound control; ET replicon cells, luciferase 48-72 hours.
`Fc1ccccc1-c1nc2cnn(Cc3cc(-c4ccccc4)no3)cc-2n1` [Compound 111, 2-(2-Fluoro-phenyl)-5-(3-phenyl-isoxazol-5-ylmethyl)-5H-imidazo[4,5-d]pyridazine] had an inhibition at 5 µM of 16%.

`CCOc1ccc(-c2cc(Cn3cc4nc(-c5ccccc5F)nc-4cn3)on2)cc1` [Compound 110, 5-[3-(4-Ethoxy-phenyl)-isoxazol-5-ylmethyl]-2-(2-fluoro-phenyl)-55H-imidazo[4,5-d]pyridazine] yielded an inhibition at 5 µM of 99.4%. In turn, `CC(C)Oc1ccc(-c2cc(Cn3cc4nc(-c5ccccc5F)nc-4cn3)on2)cc1` [Compound 112, 2-(2-Fluoro-phenyl)-5-[3-(4-isopropoxy-phenyl)-isoxazol-5-ylmethyl]-5H-imidazo[4,5-d]pyridazine] showed an inhibition at 5 µM of 80.9%. As for `Fc1ccccc1-c1nc2cnn(Cc3cc(-c4ccc(OC(F)(F)F)cc4)no3)cc-2n1` [Compound 108, 2-(2-Fluoro-phenyl)-5-[3-(4-trifluoromethoxy-phenyl)-isoxazol-5-ylmethyl]-5H-imidazo[4,5-d]pyridazine], the inhibition at 5 µM was 99.9%. Still for that read-out and setting: in the case of `CC(C)Oc1ccc(-c2cc(Cn3cc4nc(-c5cccc(F)c5F)nc-4cn3)on2)cc1` [Compound 102, 2-(2,3-Difluoro-phenyl)-5-[3-(4-isopropoxy-phenyl)-isoxazol-5-ylmethyl]-5H-imidazo[4,5-d]pyridazine] it was 99.8%. On the same count and under the same terms, the value for `COc1ccc(-c2cc(Cn3cc4nc(-c5ccccc5F)nc-4cn3)on2)cc1` [Compound 109, 2-(2-Fluoro-phenyl)-5-[3-(4-methoxy-phenyl)-isoxazol-5-ylmethyl]-5H-imidazo[4,5-d]pyridazine] was 98%. In turn, `Fc1ccc(-c2cc(Cn3cc4nc(-c5cccc(F)c5F)nc-4cn3)on2)c(C(F)(F)F)c1` [Compound 101, 2-(2,3-Difluoro-phenyl)-5-[3-(4-fluoro-2-trifluoromethyl-phenyl)-isoxazol-5-ylmethyl]-5H-imidazo[4,5-d]pyridazine] came in with an inhibition at 5 µM of 80.3%.

Still in this assay, the particulars now being: Hepatitis C virus; tested at 10 μM; inhibition of replication relative to no compound control; ET replicon cells, luciferase 48-72 hours; read-out: % inhition at 10 μM.
Turning to `Fc1cccc(-c2nc3cnn(Cc4cc(-c5ccc(Br)cc5C(F)(F)F)no4)cc-3n2)c1F` [Compound 293, 5-[3-(4-Bromo-2-trifluoromethyl-phenyl)-isoxazol-5-ylmethyl]-2-(2,3-difluoro-phenyl)-5H-imidazo[4,5-d]pyridazine], the inhibition at 10 µM turned out to be 99.7%. In the case of `CCOc1ccc(-c2cc(Cn3cc4nc(-c5cccc(F)c5F)nc-4cn3)on2)cc1` [Compound 220, 2-(2,3-Difluoro-phenyl)-5-[3-(4-ethoxy-phenyl)-isoxazol-5-ylmethyl]-5H-imidazo[4,5-d]pyridazine], the inhibition at 10 µM turned out to be 99.7%. Turning to `COc1ccc(-c2cc(Cn3cc4nc(-c5cccc(F)c5F)nc-4cn3)on2)cc1` [Compound 221, 2-(2,3-Difluoro-phenyl)-5-[3-(4-methoxy-phenyl)-isoxazol-5-ylmethyl]-5H-imidazo[4,5-d]pyridazine], the inhibition at 10 µM came out at 98.9%. For `Fc1cccc(-c2nc3cnn(Cc4cc(-c5ccc(Br)cc5)no4)cc-3n2)c1F` [Compound 200, 5-[3-(4-bromo-phenyl)-isoxazol-5-ylmethyl]-2-(2,3-difluoro-phenyl)-5H-imidazo[4,5-d]pyridazine], the inhibition at 10 µM came out at 99.4%. For the molecule `CCCOc1ccc(-c2cc(Cn3cc4nc(-c5ccc(OC)cc5)nc-4cn3)on2)cc1` [Compound 138, 2-(4-Methoxy-phenyl)-5-[3-(4-propoxy-phenyl)-isoxazol-5-ylmethyl]-5H-imidazo[4,5-d]pyridazine], the inhibition at 10 µM worked out at 48.8%.

On to `Fc1cccc(-c2nc3cnn(Cc4cc(-c5ccc6c(c5)OC(F)(F)O6)no4)cc-3n2)c1F` [Compound 167, 5-[3-(2,2-Difluoro-benzo[1,3]dioxol-5-yl)-isoxazol-5-ylmethyl]-2-(2,3-difluoro-phenyl)-5H-imidazo[4,5-d]pyridazine], for which the inhibition at 10 µM was 93.1%. For the molecule `COC(=O)c1cc(OC)ccc1-c1cc(Cn2cc3nc(-c4cccc(F)c4F)nc-3cn2)on1` [Compound 198, 2-{5-[2-(2,3-Difluoro-phenyl)-imidazo[4,5-d]pyridazin-5-ylmethyl]-isoxazol-3-yl}-5-methoxy-benzoic acid methyl ester], the inhibition at 10 µM amounted to 50.3%.

Regarding `CCOc1ccc(-c2cc(Cn3cc4nc(-c5ccccc5F)nc-4cn3)on2)cc1` [Compound 110, 5-[3-(4-Ethoxy-phenyl)-isoxazol-5-ylmethyl]-2-(2-fluoro-phenyl)-55H-imidazo[4,5-d]pyridazine], the inhibition at 10 µM came to 97.4%. Still for that read-out and setting: in the case of `COc1cc(OC(F)(F)F)ccc1-c1cc(Cn2cc3nc(-c4cccc(F)c4F)nc-3cn2)on1` [Compound 297, 2-(2,3-Difluoro-phenyl)-5-[3-(2-methoxy-4-trifluoromethoxy-phenyl)-isoxazol-5-ylmethyl]-5H-imidazo[4,5-d]pyridazine] it was 90.8%; in that of `FC(F)(F)c1ccc(-c2cc(Cn3cc4nc(-c5ccccn5)nc-4cn3)on2)c(C(F)(F)F)c1` [Compound 231, 5-[3-(2,4-Bis-trifluoromethyl-phenyl)-isoxazol-5-ylmethyl]-2-pyridin-2-yl-5H-imidazo[4,5-d]pyridazine], 42%; in that of `Oc1ccc(-c2cc(Cn3cc4nc(-c5cccc(F)c5F)nc-4cn3)on2)c(C(F)(F)F)c1` [Compound 340, 4-{5-[2-(2,3-Difluoro-phenyl)-imidazo[4,5-d]pyridazin-5-ylmethyl]-isoxazol-3-yl}-3-trifluoromethyl-phenol], 0.116%. With `Cc1nc(-c2cc(Cn3cc4nc(-c5cccc(F)c5F)nc-4cn3)on2)c(C)o1` [Compound 185, 2-(2,3-Difluoro-phenyl)-5-[3-(2,5-dimethyl-oxazol-4-yl)-isoxazol-5-ylmethyl]-5H-imidazo[4,5-d]pyridazine], the inhibition at 10 µM worked out at 47.8%. As to `Cc1cc(OC(F)(F)F)ccc1-c1cc(Cn2cc3nc(-c4cccc(F)c4F)nc-3cn2)on1` [Compound 177, 2-(2,3-Difluoro-phenyl)-5-[3-(2-methyl-4-trifluoromethoxy-phenyl)-isoxazol-5-ylmethyl]-5H-imidazo[4,5-d]pyridazine], the inhibition at 10 µM is 99.6%. Turning to `C=Cc1ccc(-c2cc(Cn3cc4nc(-c5cccc(F)c5F)nc-4cn3)on2)cc1` [Compound 338, 2-(2,3-Difluoro-phenyl)-5-[3-(4-vinyl-phenyl)-isoxazol-5-ylmethyl]-5H-imidazo[4,5-d]pyridazine], the inhibition at 10 µM was 99.9%. For the molecule `Fc1cccc(-c2nc3cnn(Cc4cc(-c5ccc(OCc6ccncc6)cc5)no4)cc-3n2)c1F` [Compound 148, 2-(2,3-Difluoro-phenyl)-5-{3-[4-(pyridin-4-ylmethoxy)-phenyl]-isoxazol-5-ylmethyl}-H-imidazo[4,5-d]pyridazine], the inhibition at 10 µM stood at 100%. The same measure, in the same setting: the value for `CC(C)Oc1ccc(-c2cc(Cn3cc4nc(-c5ccccc5F)nc-4cn3)on2)cc1` [Compound 112, 2-(2-Fluoro-phenyl)-5-[3-(4-isopropoxy-phenyl)-isoxazol-5-ylmethyl]-5H-imidazo[4,5-d]pyridazine] was 85.9%; that for `Fc1ccccc1-c1nc2cnn(Cc3cc(-c4ccc(OC(F)(F)F)cc4)no3)cc-2n1` [Compound 108, 2-(2-Fluoro-phenyl)-5-[3-(4-trifluoromethoxy-phenyl)-isoxazol-5-ylmethyl]-5H-imidazo[4,5-d]pyridazine] was 100%. `Fc1cc(C(F)(F)F)ccc1-c1cc(Cn2cc3nc(-c4ccccc4F)nc-3cn2)on1` [Compound 279, 2-(2-Fluoro-phenyl)-5-[3-(2-fluoro-4-trifluoromethyl-phenyl)-isoxazol-5-ylmethyl]-5H-imidazo[4,5-d]pyridazine]: the inhibition at 10 µM was 98.9%. For `Fc1cc(-c2cc(Cn3cc4nc(-c5cccc(F)c5F)nc-4cn3)on2)ccc1OC(F)(F)F` [Compound 168, 2-(2,3-Difluoro-phenyl)-5-[3-(3-fluoro-4-trifluoromethoxy-phenyl)-isoxazol-5-ylmethyl]-5H-imidazo[4,5-d]pyridazine], the inhibition at 10 µM turned out to be 99.2%.

In the case of `CN(C)CCOc1ccc(-c2cc(Cn3cc4nc(-c5cccc(F)c5F)nc-4cn3)on2)cc1` [Compound 161, [2-(4-{5-[2-(2,3-Difluoro-phenyl)-imidazo[4,5-d]pyridazin-5-ylmethyl]-isoxazol-3-yl}-phenoxy)-ethyl]-dimethyl-amine], the inhibition at 10 µM came out at 54.6%. `FC(F)(F)c1ccc(-c2cc(Cn3cc4nc(NC5CCCc6ccccc65)nc-4cn3)on2)c(C(F)(F)F)c1` (stereo not shown) [Compound 260, {5-[3-(2,4-Bis-trifluoromethyl-phenyl)-isoxazol-5-ylmethyl]-5H-imidazo[4,5-d]pyridazin-2-yl}-(1,2,3,4-tetrahydro-naphthalen-1-yl)-amine]: the inhibition at 10 µM was 53.2%. On the same count and under the same terms, in the case of `Fc1cccc(-c2nc3cnn(Cc4cc(-c5ccc(CCC(F)(F)F)cc5)no4)cc-3n2)c1F` [Compound 331, 2-(2,3-Difluoro-phenyl)-5-{3-[4-(3,3,3-trifluoro-propyl)-phenyl]-isoxazol-5-ylmethyl}-5H-imidazo[4,5-d]pyridazine] it was 99.9%; in that of `Fc1cccc(-c2nc3cnn(Cc4cc(-c5ccc(OCCN6CCOCC6)cc5)no4)cc-3n2)c1F` [Compound 196, 2-(2,3-Difluoro-phenyl)-5-{3-[4-(2-morpholin-4-yl-ethoxy)-phenyl]-isoxazol-5-ylmethyl}-5H-imidazo[4,5-d]pyridazine], 89%. As for `Fc1cccc(-c2nc3cnn(Cc4cc(-c5ccc(OC(F)(F)C(F)F)cc5)no4)cc-3n2)c1F` [Compound 175, 2-(2,3-Difluoro-phenyl)-5-{3-[4-(1,1,2,2-tetrafluoro-ethoxy)-phenyl]-isoxazol-5-ylmethyl}-5H-imidazo[4,5-d]pyridazine], the inhibition at 10 µM is 99.8%.

With `CC(C)Oc1ccc(-c2cc(Cn3cc4nc(-c5cccc(F)c5F)nc-4cn3)on2)cc1` [Compound 102, 2-(2,3-Difluoro-phenyl)-5-[3-(4-isopropoxy-phenyl)-isoxazol-5-ylmethyl]-5H-imidazo[4,5-d]pyridazine], the inhibition at 10 µM came to 99.7%. In the case of `NC(=O)c1ccccc1-c1nc2cnn(Cc3cc(-c4ccc(C(F)(F)F)cc4C(F)(F)F)no3)cc-2n1` [Compound 133, 2-{5-[3-(2,4-Bis-trifluoromethyl-phenyl)-isoxazol-5-ylmethyl]-5H-imidazo[4,5-d]pyridazin-2-yl}-benzamide], the inhibition at 10 µM came out at 10.1%. Consider `CCCCc1ccc(-c2cc(Cn3cc4nc(-c5ccccc5F)nc-4cn3)on2)cc1` [Compound 277, 5-[3-(4-Butyl-phenyl)-isoxazol-5-ylmethyl]-2-(2-fluoro-phenyl)-5H-imidazo[4,5-d]pyridazine], for which the inhibition at 10 µM turned out to be 99.9%.

`COc1ccc(-c2cc(Cn3cc4nc(-c5ccccc5F)nc-4cn3)on2)cc1` [Compound 109, 2-(2-Fluoro-phenyl)-5-[3-(4-methoxy-phenyl)-isoxazol-5-ylmethyl]-5H-imidazo[4,5-d]pyridazine]: the inhibition at 10 µM came to 95.4%. `Fc1ccc(-c2cc(Cn3cc4nc(-c5cccc(F)c5F)nc-4cn3)on2)c(C(F)(F)F)c1` [Compound 101, 2-(2,3-Difluoro-phenyl)-5-[3-(4-fluoro-2-trifluoromethyl-phenyl)-isoxazol-5-ylmethyl]-5H-imidazo[4,5-d]pyridazine]: the inhibition at 10 µM was determined as 92.9%.

For the molecule `CCCC(F)(F)c1ccc(-c2cc(Cn3cc4nc(-c5cccc(F)c5F)nc-4cn3)on2)cc1` [Compound 316, 5-{3-[4-(1,1-Difluoro-butyl)-phenyl]-isoxazol-5-ylmethyl}-2-(2,3-difluoro-phenyl)-5H-imidazo[4,5-d]pyridazine], the inhibition at 10 µM was 99.7%.
